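A five-concentration, 48-hour dose response in 96-well plates underlies each endpoint, interpolated linearly between surrounding concentrations. The concentration for 50% growth inhibition is given as GI50.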 Activity calls are given as the source filed them. No stated cut-off is given here; in the data, active = GI50 up to about 1.1 µM and inactive = higher.
Columns and labels:
Test in all cases: NCI tumour cell line growth inhibition, 48 h
[1] = test system: 786-0
[2] = test system: A498
[3] = test system: ACHN
[4] = test system: CAKI-1
[5] = test system: DMS-114
[6] = test system: HCC 2998
[7] = test system: M19-MEL
[8] = test system: MCF7
[9] = test system: MDA-MB-231
[10] = test system: MDA-N
[11] = test system: MOLT-4
[12] = test system: Malme-3M
[13] = test system: NCI-H226
[14] = test system: NCI-H460
[15] = test system: OVCAR-8
[16] = test system: PC-3
[17] = test system: SF-539
[18] = test system: SK-MEL-28
[19] = test system: SK-OV-3
[20] = test system: SNB-75

Measured: GI50

CC(=O)NNc1nc(C)c(C(=O)NNC(=O)C(=O)Nc2nc3ccc([N+](=O)[O-])cc3s2)s1
inactive: [1] 61.5 µM | [2] 33.6 µM | [3] 50.4 µM | [4] 30.5 µM | [5] 24.4 µM | [6] 42.1 µM | [7] 45.5 µM | [8] 31 µM | [9] 18.7 µM | [10] 45.9 µM | [11] 28.8 µM | [12] 35 µM | [13] 80 µM | [14] 49 µM | [15] 52.7 µM | [16] 26.9 µM | [17] 44.7 µM | [18] 65.2 µM | [19] 64.4 µM | [20] 29.4 µM

Source: ChEMBL document CHEMBL1201862, “PubChem BioAssay data set” (2004)
